Assay results published in patent US9694073B2, “Small molecule inhibitors of polynucleotide kinase/phosphatase, poly(ADP-ribose) polymerase and uses thereof” (THE GOVERNORS OF THE UNIVERSITY OF ALBERTA, priority 2009, dated 2017).
Entries after “also recorded” stand apart in the source; their conditions may differ. Starred links: 1 amine or outer side, 2 acyl side, 3 side chain; linkers in the order of their positions; H or OH if unused. Positions of bridges follow the written chain, without caps; N, C: chain ends. Non-standard residues stand in square brackets, D forms with d. Residues, ends and D or L forms follow the SMILES beside them. Adda = CO[C@@H](Cc1ccccc1)[C@@H](C)/C=C(C)/C=C/[C@H](N[*:1])[C@H](C)C(=O)[*:2]; dAsp(3S-Me) = C[C@H](C(=O)[*:3])[C@@H](N[*:1])C(=O)[*:2]; d(γGlu) = O=C(O)[C@@H](CCC(=O)[*:2])N[*:1]; NMeDha = C=C(NC)C(=O)O

How the values were obtained:
[1] = biological target: T1, human PNKP (hPNKP) 3'-phosphatase activity (Homo sapiens, UniProt Q96T60); experiment: Fluorescence quenching-based screening assay for PNKP 3'-phosphatase activity; type: biochemical; settings: 100 μM compound, 50 ng hPNKP
T1 construct: made in house; host or cells: bacteria (said only for the batch compared with aprataxin)
Procedure: The […] assay developed originally for protein kinases by QTL Biosystems (Santa Fe, N. Mex.) was modified. […] The TAMRA-labelled oligonucleotide lacking a 3'-phosphate served as a control. […] The assay was performed in 384-well white Optiplate microplates (PerkinElmer, Woodbridge, ON) in 70 mM Tris-HCl, pH 7.4, 60 mM MgCl2, 5 mM MnCl2, 0.3% BSA, 0.09% sodium azide. Reaction buffer was prepared by adding 1 mM DTT immediately prior to use. Five μL of 3'-phosphatase substrate (final concentration 0.5 μM) was used per well. In duplicate, 10 μl of each concentration of hPNKP was added per well. Plates were incubated for 1 hour at 37° C. and then 15 μl of 1× sensor solution (provided by QTL) was added to each well and incubated for 30 minutes at room temperature. Fluorescence (485 nm excitation and 520 nm emission wavelengths) of each well was read in a FLUOstar Optima® (BMG Labtech Inc, Durham, N.C.). Data were analyzed using GraphPad Prism® Software (San Diego, Calif.). […] Small molecules were provided in powder form and were dissolved in 100% DMSO and a final concentration of 100 μM was added to each well and assays were performed as described above. After obtaining an optimum calibration curve and enzyme concentration curve, a simplified form of the assay to test the library in a short time, was employed. One concentration of hPNKP, 50 ng, was tested and compared with the control well with no enzyme. The assay was conducted in the same way as described above with respect to oligonucleotides, buffer, controls, incubation lengths/temperatures, centrifugations and sensor addition. The fluorescence-based phosphatase assay adapted was originally developed to monitor protein phosphatase activity (34). This assay involves a fluorescent sensor molecule coated in trivalent metal cations which causes superquenching of the sensor signal when in close proximity to a dye (TAMRA) on the substrate. The sensor is brought close to TAMRA via the ionic bond formed between the terminal DNA phosphate and the trivalent metal cations on the sensor. Removal of the phosphate leads to an elevation of fluorescence because the sensor is not brought close enough to TAMRA for its signal to be quenched. […] Heat inactivated hPNKP was used as a control.

[2] = biological target: T2, hPNKP 3'-phosphatase activity (Homo sapiens, UniProt Q96T60); experiment: Conventional radio-gel assay for hPNKP 3'-phosphatase activity; type: biochemical
T2 construct: made in house; host or cells: bacteria (said only for the batch compared with aprataxin)

[3] = biological target: T3, PP-1cγ (Homo sapiens, UniProt P36873); experiment: PP-1cγ pNPP phosphatase assay; type: biochemical
T3 construct: made in house; host or cells: E. coli
Procedure: PP-1cγ and calcineurin activity was analyzed, using a colorimetric p-nitrophenol phosphate (pNPP) assay as previously described (33). The reaction were carried out in a 96-well microplate with a final volume of 60 μl containing 40 μl of pNPP assay buffer (50 mM Tris, pH 7.4, 0.1 mM EDTA, 30 mM MgCl2, 0.5 mM MnCl2, 1 mg/ml BSA, 0.2% β-mercaptoethanol), 0.03 μg PP-1cγ (specific activity>30 units per mg) or a catalytically equivalent quantity of calcineurin and 10 μl of 0.5 mM DNA 3′-phosphatase inhibitor sample in DMSO or 10 μl of 50 μM A12B4C3 sample in DMSO, or control solvent. After a 10-minute incubation at 37° C., 10 μl of 30 mM pNPP was added to each well and incubated for an additional of 60 minutes and 45 minutes for PP-1cγ and calcineurin, respectively.

[4] = tested on: A549-VO vector only control cells
[5] = tested on: M059J cells (DNA-PKcs negative); type: cell-based, human

T3 sequence (P36873 whole entry): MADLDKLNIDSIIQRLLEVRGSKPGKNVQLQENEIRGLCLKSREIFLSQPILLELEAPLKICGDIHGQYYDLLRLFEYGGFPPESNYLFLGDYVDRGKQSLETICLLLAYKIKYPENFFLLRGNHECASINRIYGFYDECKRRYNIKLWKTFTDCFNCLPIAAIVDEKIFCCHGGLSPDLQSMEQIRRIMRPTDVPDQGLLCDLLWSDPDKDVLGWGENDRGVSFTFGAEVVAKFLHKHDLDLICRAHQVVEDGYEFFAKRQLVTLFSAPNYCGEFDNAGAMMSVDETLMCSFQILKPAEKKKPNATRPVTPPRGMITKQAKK

| Structure (SMILES) | inhibition of hPNKP phosphatase activity (substrate dephosphorylation) in the screening assay [1] | inhibition of hPNKP phosphatase activity, radio-gel assay [2] | reduction of the activity of PP1 [3] | cell survival of control cells (A549-VO) [4] | cell survival of M059J cells [5] |
| --- | --- | --- | --- | --- | --- |
| CN1C(=O)C2C=CC(C(O)c3cccs3)N(Nc3ccccc3)C2C1=O (stereo not drawn) [Compound A39B1C2, 2-(hydroxy(thiophen-2-yl)methyl)-6-methyl-1-(phenylamino)-6,7a-dihydro-1H-pyrrolo[3,4-b]pyridine-5,7(2H,4aH)-dione] | significant inhibition; also recorded: marked inhibition | inhibited | – | – | – |
| C=C1C(=O)N[C@H](C)C(=O)N[C@@H](CC(C)C)C(=O)N[C@@H](C(=O)O)[C@H](C)C(=O)N[C@@H](CCCNC(=N)N)C(=O)N[C@@H](/C=C/C(C)=C/[C@H](C)[C@H](Cc2ccccc2)OC)[C@H](C)C(=O)N[C@@H](C(=O)O)CCC(=O)N1C [microcystin LR, reference compound] (R[Adda][d(γGlu)][NMeDha][dA]L[dAsp(3S-Me)]-OH; lactam N-7) | – | – | ~65% | – | – |
| O=C1NCCc2c(OCCCCN3CCCCC3)cccc21 [DPQ, 3,4-dihydro-5[4-(1-piperindinyl)butoxy]-1(2H)-isoquinoline] | – | – | – | no such relationship | reduced survival |
| O=C1C2C=CC(C(O)c3ccccc3)N(Nc3ccc([N+](=O)[O-])cc3)C2C(=O)N1c1ccccc1 (stereo not drawn) [Compound A1B4C3, 2-(hydroxy(phenyl)methyl)-1-(4-nitrophenylamino)-6-phenyl-6,7a-dihydro-1H-pyrrolo[3,4-b]pyridine-5,7(2H,4aH)-dione] | significant inhibition; also recorded: marked inhibition | inhibited | – | – | – |
| CN1C(=O)C2C=CC(C(O)C(c3ccccc3)c3ccccc3)N(NC(=O)OC(C)(C)C)C2C1=O (stereo not drawn) [Compound A26B11C2, tert-butyl 2-(1-hydroxy-2,2-diphenylethyl)-6-methyl-5,7-dioxo-2,4a,5,6,7,7a-hexahydro-1H-pyrrolo[3,4-b]pyridin-1-ylcarbamate] | significant inhibition; also recorded: marked inhibition | inhibited | – | – | – |
